Experimental data published in PMC11571215, “Optimization of Antiproliferative Properties of Triimine Copper(II) Complexes” (Journal of Medicinal Chemistry, 2024).

Columns and labels:
HCT116-DoxR 3D spheroids = assay: CellTox Green cytotoxicity assay in 3D spheroids; format: cell-based, human; details: 4.8 μM Cu1a or 5.8 μM Cu1b; 3, 24, 48, 72 h
Experimental: Moreover, over time a detachment of death cells from the spheroids is observed (with green cells in the periphery of the outer region of the spheroids more clearly visualized at 72 h of exposure; Figure 5B and Supplementary Figure S16B,C).
HCT116-DoxR cells were seeded at 5 × 10^4 cells/mL in super low Attachment 96-well plates (NunclonSphera U-Shaped-Bottom Microplate, Thermo Fisher Scientific, Waltham, MA, USA) and incubated at 37 °C in a humidified atmosphere with 5% (v/v) CO2, to allow spheroids formation and growth.[60],[105] To perform the cell viability study, two methods were used: the MTS assay and the CellTox assay.
For the CellTox assay, HCT116DoxR spheroids grown for 6 to 9 days were used. […] CellTox Green dye is an asymmetric cyanine dye that enters cells with compromised membrane integrity and binds to DNA, which enhances its fluorescence. […] Therefore, higher levels of fluorescence are associated with a higher number of death cells.[106] […] After 3, 24, 48, and 72 h of incubation, fluorescence images were acquired with Ti–U Eclipse inverted microscope (Nikon), with a FITC filter (excitation at 465–495 nm, in the blue region, and emission at 515–555 nm, in the green region).
The software ImageJ was used for fluorescence quantification in which the Corrected Total Cell Fluorescence (CTCF, eq 6) was determined. […]

[1] = tested on: BAX and BCL-2 proteins in HCT116-DoxR cells; assay: BAX and BCL-2 protein expression by Western Blot; format: cell-based, human; details: 48 h at IC50; normalized to 0.1% DMSO control and β-actin
Experimental: 0.1% DMSO was used as a negative control and β-actin protein was used for the normalization of the total protein quantity.
HCT116-DoxR cells were seeded in a 25 cm^2 T-flask at a density of 2 × 10^6 cells/T-flask. […] Cells were incubated for 48 h and later were washed and collected using cold PBS 1× and a cell scraper. […]
After the storage period, the samples were submitted 5 ultrasound (Elma sonicator, D-78224 Singen/Htw, Germany) cycles on ice (2 min and 30 s on ultrasound followed by 1 min period on ice) and then centrifuged at 10,000 × g for 5 min. The supernatant was transferred to a 1.5 mL Eppendorf tube, and the total protein extracted was quantified with Pierce 660 nm Protein Assay kit (ThermoFisher Scientific, MA, USA).
In the SDS-PAGE analysis of BAX and BCL-2 proteins, 20 μg of protein was applied into a 10% polyacrylamide gel as well as NZYColour protein marker II and transferred to a 0.45 μm polyvinylidene fluoride (PVDF) membrane (GE Healthcare Life Sciences, Germany). […] Protein quantification was done by densitometry with ImageJ software.

[2] = Stability/solubility in RPMI culture medium by UV-vis; format: physicochemical; details: 50 μM, without phenol red and FBS, 0 to 3 h, 37 °C
Experimental: The complexes (powder form) were first dissolved in 100% (v/v) DMSO and subsequently in RPMI culture medium without phenol red and fetal bovine serum (FBS), at a final concentration of 50 μM. Absorption spectra were recorded in the wavelength range of 220–800 nm. As previously, high-energy absorption bands corresponding to π → π* and n → π* transitions with peaks between 230 and 380 nm ranges were observed, which may correspond to the aromatic rings of terpyridine.[24],[38]
Copper complex stability in a biological medium was analyzed through UV–vis spectroscopy spanning a range from 220 to 800 nm. Complexes were dissolved in 100% (v/v) DMSO and subsequently diluted with RPMI medium (without phenol red) to achieve a final concentration of 50 μM. The measurements were conducted in a quartz cuvette with a 1 cm path length. Spectral analyses were obtained after 0, 3, 6, 24, and 48 h on the Evolution 300 UV–vis spectrophotometer (Thermo Fisher Scientific in Waltham, MA, USA).

Row | Structure (SMILES) | cell death in spheroids (CellTox Green fluorescence) (HCT116-DoxR 3D spheroids) | BAX/BCL-2 ratio higher than control [1] [×] | solubility/stability in RPMI culture medium [2]
1 | [Cl][Cu-3]12([Cl])[n+]3ccccc3-c3cc(-c4ccc5ccccc5c4)cc([n+]31)-c1cccc[n+]12 [Cu1b] | the increase of cell death | 1.65 | a slight reduction of its solubility from 0 to 3 h
2 | [Cl][Cu-3]12([Cl])[n+]3ccccc3-c3cc(-c4cccc5ccccc45)cc([n+]31)-c1cccc[n+]12 [Cu1a] | the increase of cell death | 1.80 | maintenance of solubility
